Experimental data: US20230167437A1, “COMPOSITIONS FOR TREATING CANCER WITH KRAS MUTATIONS AND USES THEREOF” (Aadigen, LLC, priority 2020, published 2023)

Experiments:
[1] = test system: HT-29 cells; assay: Cell proliferation over 5 days (CellTiter Glow); assay type: cell-based, human; conditions: KRAS WT cells
Procedure: (§1) Transfection protocol. The following protocols are reported for 24/48/96 well plate format transfection. Cells should be trypsinized and seeded a day prior transfection Cells were cultured in Dulbecco's Modified Eagle's Medium (DMEM), supplemented with 2 mM glutamine, 1% antibiotics (streptomycin 10,000 μg/mL, penicillin, 10,000 IU/mL) and 10% (w/v) foetal calf serum (FCS), at 37° C. in a humidified atmosphere containing 5% CO2. 96 well plates seeded with 50,000 cells, the day prior transfection, grown to 60-80% confluence and set up to be at around 70% confluence at the day of transfection. Before transfection, cells are washed twice with DMEM (without FBS and pen/strep) (100 μl/well). Cells were then overlaid with 25 μl of complex solution, mixed gently and incubated for 10 min at 37° C.+5% CO2. 50 μl of fresh DMEM (without FBS and Antibiotics) was added and cells were incubated for 2 h at 37° C.+5% CO2 (time of exposure can be adjusted based on sensitivity of the cells). 250 μL of DMEM (containing 10% FCS and 1% antibiotics) were then added without removing the overlay of ADGN peptide/mRNA complexes. Cells were returned to the incubator (37° C., 5% CO2) and analyzed 48 hours to 72 hours post transfection.
(§2) Nine different gRNAs targeting KRAS 35G>T mutant G12V (gRNA35T1, gRNA35T2, gRNA35T3, gRNA35T4, gRNA35T5, gRNA35T6, gRNA35T7, gRNA35T8 and gRNA35T9 (see FIG. 18)) were evaluated on SW403 and SW480 cancer cells harboring G12V KRAS mutation. Cas9 mRNA (0.15 μg) and gRNA (0.2 μg) were associated with ADGN-peptides as reported in experimental procedure. SW403, SW480 and HT-29 cells were cultured in 48 well plate format and treated with free mRNACas9-gRNA, or ADGN-100/mRNACas9:gRNA complex. Indel frequencies at the endogenous target sequences was evaluated 72 hours after transfection by either T7E1 method and by deep sequencing. Cell proliferation was analyzed over a period of 5 days using CellTiter Glow kits on GlowMax (Promega).

[2] = test system: wild type KRAS; assay: Indel frequencies at the endogenous target sequences (T7E1 / deep sequencing) after ADGN/Cas9 mRNA/gRNA transfection; assay type: cell-based, human; conditions: HT29 cells
Procedure: (§3) Complex formation with mRNA:gRNA: ADGN peptide/mRNA/gRNA particles were prepared at a 20:1:1 molar ratio. ADGN/Cas9mRNA/sgRNA complexes were prepared at a 20/1/1 molar ratio with 0.5 μg mRNA: 1.5 μg sgRNA and 5% Glucose or DMEM (example for 96 well plates). […] Premixed Cas9 mRNA/gRNA were prepared in sterile water at room temperature in a glass vial (1-4 ml). ADGN-peptide solution was added dropwise (1 drop/sec) under magnetic agitation at 400 rpm to obtain a 1:2 ratio, and incubated for 30 min at room temperature or 37° C. Just before transfection, 150 μl Glucose or DMEM was added and the solution was mixed under magnetic agitation at 400 rpm for 1 minute. Then the solution was incubated for 5 min at 37° C. Then the complexes was ready for cell transfection or IV administration. Prior to IV administration, complexes were diluted in sucrose 5% solution.
as §1, §2
Nine different gRNAs targeting KRAS 35G>A mutant G12D (gRNA35A1, gRNA35A2, gRNA35A3, gRNA35A4, gRNA35A5, gRNA35A6; gRNA35A7, gRNA35A8, gRNA35A9) were evaluated on LS513, Panc1, PK-45H, and PK1 cancer cells harboring G12D KRAS mutation. Cas9 mRNA (0.1 μg) and gRNA (0.2 μg) were associated with ADGN-peptide at molar ratio 20/1 (peptide/nucleic acid). LS513, Panc1, PK-45H, PK1, HS-68 and HT-29 cells were cultured in 48 well plate format and treated with free mRNACas9-gRNA, or ADGN/mRNACas9:gRNA complex. Indel frequencies at the endogenous target sequences was evaluated 72 hours after transfection by either T7E1 method or deep sequencing. Cell proliferation was analyzed over a period of 5 days using CellTiter Glow kits on GlowMax (Promega).

[3] = test system: KRAS 35G>T mutant G12V; assay: as above; assay type: cell-based, human; conditions: for indel frequencies: deep sequencing, 72 hours after transfection, Cas9 mRNA 0.15 μg, gRNA 0.2 μg, ADGN-100
Procedure: as §3, §1, §2
(§4) In order to confirm the specificity of sgRNAs targeting G12V, G12C or G12D KRAS mutation, gRNA35T3 targeting G12V, gRNA34T6 targeting G12C, and gRNA35A5 targeting G12D were evaluated on a large panel of cancer cells harboring different KRAS mutations including SW403, SW480, PANC1, PK-45H, PK-1, MIA-PACA, H23, H358, HT-29, HS-68 and LS513. Cas9 mRNA (0.2 μg) and gRNA (0.4 μg) were associated with ADGN peptide at molar ratio 20/1 (peptide/nucleic acid). Cells were cultured in 48 well plate format and treated with free mRNACas9-gRNA, or ADGN/mRNACas9:gRNA complex. Indel frequencies at the endogenous target sequences was evaluated 72 hours after transfection by either T7E1 method and cell proliferation was analyzed over a period of 5 days using CellTiter Glow kits on GlowMax (Promega).

[4] = test system: phospho-p44/42 MAPK (Erk1/2) (Thr202/Tyr204); assay: Western blot of KRAS downstream signaling 48 h post transfection; assay type: cell-based, human; conditions: SW403 cells
Procedure: (§5) In order to verify the specific effect of your lead sgRNA targeting G12V and G12D KRAS mutation, gRNA35A5 G12D and gRNA35T3 G12V on KRAS signal transduction pathway in PANC-1 and SW403 cells, we measured the levels of downstream signaling proteins that are activated by KRAS. We specifically looked for changes in key signaling pathways, such as mitogen-activated protein kinase (MAPK) or PI3K/Akt, which are known to be the major effector pathways of KRAS activation. Cas9 mRNA (0.2 μg) and gRNA (0.2 μg or 0.5 μg) were associated with ADGN peptide at molar ratio 20/1 (peptide/nucleic acid). PANC1 and SW403 cells were cultured in 48 well plate format and treated with free mRNACas9-gRNA, or ADGN/mRNACas9:gRNA complex. Levels of Erk and Akt phosphorylation were measured 48 h post transfection by western blot using phospho-Akt (Ser 473) (CST, #9271, RRID:AB_329825) and phospho-p44/42 MAPK (Erk1/2) (Thr202/Tyr204) (CST, #4370, RRID:AB_2315112).

[5] = test system: phospho-Akt (Ser 473); assay: as above; assay type: cell-based, human; conditions: SW403 cells
Procedure: as §5

[6] = test system: pERK; assay: Downstream signaling proteins quantified by ELISA on tumors; assay type: in vivo, mice; conditions: SW403 tumors
Procedure: The specificity of gRNA35A5 G12D and gRNA35T3 G12V for their targets in PANC-1 and SW403 tumors cells, have been analyzed. Female nude mice 6-weeks of age were injected with either Human pancreatic carcinoma cell (Panc1-Luc) containing the 35G>A mutation or Human colorectal cancer cells (SW403) containing 35G>T KRAS mutation (20×10^6 cells in 200 μl PBS). A period of 2 weeks was allowed for tumor development before the beginning of the experiments.
Animal were injected on day 1 and day 7. Mice received IV injection of 100 μl ADGN/mRNA complex in 5% glucose. At Day 50, animals were sacrificed and tissues/tumors were harvested. At Day 50 post treatment, level of expression of housekeeping genes; glyceraldehyde-3-phosphate dehydrogenase (GAPDH), HPRT-1 and mitochondrial ATP synthase 6 (mATPsy6) was evaluated by PCR in the tumor, liver, spleen and lung.
We analyzed the level of KRAS G12D or KRAS G12V gene editing by deep sequencing in PANC1 (FIG. 14A) and SW403 (FIG. 14B) tumors, respectively. […] The level of downstream signaling proteins (pAKT and pERK) were quantified by ELISA on PANC1 and SW403 tumors. […] Given that targeting KRAS using Cas9/sgRNA can induce various secondary mutations at or near the target sites, deep sequencing shown similar level of secondary oncogenic mutations (G12D, G12V, G12C, G13D, G12R, G12A, and G12S) in KRAS-mutant cancer cells (SW403/PANC-1) or cells containing wild-type KRAS (HT29) either in vitro or in vivo.

[7] = test system: SW403 and SW480 cells; assay: Cell proliferation over 5 days (CellTiter Glow); assay type: cell-based, human
Procedure: as §1, §2

[8] = test system: G12V, G12D, G12C KRAS mutant cells and WT KRAS cells; assay: Specificity of lead sgRNAs on a large panel of cancer cells harboring different KRAS mutations (indel, proliferation); assay type: cell-based, human; conditions: Cas9 mRNA 0.2 μg, gRNA 0.4 μg
Procedure: as §4

[9] = test system: KRAS 34G>T mutant G12C; assay: Indel frequencies at the endogenous target sequences (T7E1 / deep sequencing) after ADGN/Cas9 mRNA/gRNA transfection; assay type: cell-based, human; conditions: for indel frequencies: deep sequencing, 72 hours after transfection, Cas9 mRNA 0.1 μg, gRNA 0.2 μg
Procedure: as §3, §1
(§6) Eight different gRNAs targeting KRAS 34G>T mutant G12C (gRNA34T1, gRNA34T2, gRNA34T3, gRNA34T4, gRNA34T5, gRNA34T6, gRNA34T7 and gRNA34T8) were evaluated on MIA-PACA, H23, H358, H29 and PANC1 cells. Cas9 mRNA (0.1 μg) and gRNA (0.2 μg) were associated with ADGN peptide at molar ratio 20/1 (peptide/nucleic acid). MIA-PACA, H23, H358, PANC1 and HT29 cells were cultured in 48 well plate format and treated with free mRNACas9-gRNA, or ADGN/mRNACas9:gRNA complex. Indel frequencies at the endogenous target sequences was evaluated 72 hours after transfection by either T7E1 method or deep sequencing. Cell proliferation was analyzed over a period of 5 days using CellTiter Glow kits on GlowMax (Promega).
as §4

[10] = test system: Mia-PACA, H23 and H358 cells; assay: Cell proliferation over 5 days (CellTiter Glow); assay type: cell-based, human
Procedure: as §1, §6

[11] = SW403 cells (heterozygous 35G>T)

Q: With “AGC TGT TGG CGT AGG CAA (guide AGCTGTTGGCGTAGGCAA; chemistry not given here) [gRNA35T4, sgRNA target KRAS G12V mutation (c.35G>T); PAM GAG]” as the sequence, how does the HT-29 proliferation [1] read?
A: altered also HT-29 proliferation

Q: And the “disruption of WT KRAS” value [2]?
A: also induced disruption of WT KRAS in HT29 cells

Q: And the indel frequencies [3, 11]?
A: 22%

Q: What about the indel frequencies ([3]; SW480 cells (homozygous 35G>T)) of the same sequence?
A: 41%

Q: “GGTAGTTGGAGCTGTTGGCG (guide GGTAGTTGGAGCTGTTGGCG; chemistry not given here) [gRNA35T3, sgRNA target KRAS G12V mutation (c.35G>T); PAM TAG]” was tested. Which “level of p-Erk” value [4] did it give?
A: significantly affected

Q: And the Akt phosphorylation [5]?
A: poorly

Q: What about the “level of p-ERK” value [6] of the same sequence?
A: significantly affected

Q: And the “fold more efficient than gRNA35T6 (cell proliferation)” value ([7]; SW403 and SW480 cells)?
A: 2 fold

Q: And the “fold more efficient than gRNA35T8 (cell proliferation)” value ([7]; SW403 and SW480 cells)?
A: 1.5 fold

Q: What about the cell proliferation blocked ([7]; SW403 and SW480 cells, 5 days) of the same sequence?
A: 75%

Q: And the “inhibition of proliferation or survival (FIG. 1B)” value ([7]; SW480 and SW403 cells vs HT29 cells harboring KRAS WT)?
A: specifically inhibit proliferation or survival of SW480 and SW403 cells

Q: What about the “effect on non-targeted KRAS mutant cells and WT KRAS cells (FIGS. 4A-4B)” value [8] of the same sequence?
A: does not alter G12D and G12C KRAS mutant cells or WT KRAS cells

Q: And the indel frequency ([3]; KRAS G12V mutated cancer cells)?
A: > 70%

Q: And the “indel editing and disruption of G12V mutant KRAS (FIG. 1A)” value ([3]; SW403, SW480 vs wild type KRAS HT29 cells, T7E1)?
A: specifically induced indel editing and efficient disruption

Q: What about the indel frequency ([3]; SW403 and SW480 cells, T7E1, 72 hours, Cas9 mRNA 0.2 μg, gRNA 0.4 μg) of the same sequence?
A: > 65%

Q: What about the indel frequencies [3, 11] of the same sequence?
A: 65%

Q: What about the indel frequencies ([3]; SW480 cells (homozygous 35G>T)) of the same sequence?
A: 81%

Q: For “GTAGTTGGAGCTTGTGGCGT (guide GTAGTTGGAGCTTGTGGCGT; sgRNA, chemical modifications not given here, further chemistry not given here) [gRNA34T6, sgRNA target KRAS G12C mutation (34G>T); PAM AGG]”, which indel frequencies ([9]; H23 cells) is on record?
A: 78%

Q: What about the indel frequencies ([9]; H358 cells) of the same sequence?
A: 67%

Q: And the indel frequency ([9]; KRAS G12C mutated cancer cells)?
A: > 70%

Q: And the indel frequencies ([9]; Mia-PACA cells)?
A: 71%

Q: And the “indel editing and disruption of G12C mutant KRAS (FIG. 3A)” value ([9]; Mia-PACA, H23, H358 vs HT29 and PANC1 cells)?
A: induced indel editing and efficient disruption of G12C mutant KRAS

Q: What about the indel frequency ([9]; Mia-PACA, H23 and H358 cells, T7E1, 72 hours, Cas9 mRNA 0.2 μg, gRNA 0.4 μg) of the same sequence?
A: > 70%

Q: And the “effect on non-targeted KRAS mutant cells and WT KRAS cells (FIGS. 4A-4B)” value [8]?
A: does not alter G12D and G12V KRAS mutant cells or WT KRAS cells

Q: And the “fold more efficient than gRNA34T3 (cell proliferation)” value [10]?
A: 3 fold

Q: What about the “fold more efficient than gRNA34T5 (cell proliferation)” value [10] of the same sequence?
A: 2 fold

Q: What about the “inhibition of proliferation or survival (FIG. 3B)” value ([10]; Mia-PACA, H23, H358 vs KRAS WT HT29 or HS-68 and PANC1 cells) of the same sequence?
A: specifically inhibit proliferation or survival of Mia-PACA, H23 and H358 cells

Q: What about the cell proliferation blocked ([10]; Mia-PACA, H23 and H358 cells, 5 days) of the same sequence?
A: 75%
